For one compound, ΔTm results are on record in ChEMBL document CHEMBL5360622, “Leucettinibs, a Class of DYRK/CLK Kinase Inhibitors Inspired by the Marine Sponge Natural Product Leucettamine B” (J Med Chem, 2023).

Holding throughout (details): dose 10.0 µM
Assay [1] deals with Dual specificity protein kinase CLK1 (Homo sapiens, UniProt P49759).
Assay [2] addresses Dual specificity tyrosine-phosphorylation-regulated kinase 2 (Homo sapiens) (UniProt Q92630).
Assay [3] has as its target T1, Mitogen-activated protein kinase 15 (Homo sapiens) (UniProt Q8TD08).
T1 sequence (whole entry): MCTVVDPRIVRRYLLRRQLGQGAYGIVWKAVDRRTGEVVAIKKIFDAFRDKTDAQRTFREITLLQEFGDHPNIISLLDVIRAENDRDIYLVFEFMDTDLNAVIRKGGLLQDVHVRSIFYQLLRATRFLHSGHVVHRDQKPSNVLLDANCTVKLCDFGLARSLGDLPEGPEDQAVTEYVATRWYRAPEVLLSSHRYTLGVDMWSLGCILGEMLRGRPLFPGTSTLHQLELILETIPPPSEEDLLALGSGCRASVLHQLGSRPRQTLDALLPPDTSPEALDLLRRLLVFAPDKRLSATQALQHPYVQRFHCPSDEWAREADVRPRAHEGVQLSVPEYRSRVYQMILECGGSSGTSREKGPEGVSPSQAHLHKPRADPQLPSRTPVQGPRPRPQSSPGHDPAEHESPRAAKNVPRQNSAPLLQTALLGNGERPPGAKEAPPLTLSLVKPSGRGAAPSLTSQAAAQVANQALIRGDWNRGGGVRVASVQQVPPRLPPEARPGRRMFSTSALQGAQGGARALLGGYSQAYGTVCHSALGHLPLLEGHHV

In assay [4] the target is Calcium/calmodulin-dependent protein kinase kinase 2 (Homo sapiens) (UniProt Q96RR4).
Sequence of Calcium/calmodulin-dependent protein kinase kinase 2 (Homo sapiens) (Q96RR4 2-588 limits assumed): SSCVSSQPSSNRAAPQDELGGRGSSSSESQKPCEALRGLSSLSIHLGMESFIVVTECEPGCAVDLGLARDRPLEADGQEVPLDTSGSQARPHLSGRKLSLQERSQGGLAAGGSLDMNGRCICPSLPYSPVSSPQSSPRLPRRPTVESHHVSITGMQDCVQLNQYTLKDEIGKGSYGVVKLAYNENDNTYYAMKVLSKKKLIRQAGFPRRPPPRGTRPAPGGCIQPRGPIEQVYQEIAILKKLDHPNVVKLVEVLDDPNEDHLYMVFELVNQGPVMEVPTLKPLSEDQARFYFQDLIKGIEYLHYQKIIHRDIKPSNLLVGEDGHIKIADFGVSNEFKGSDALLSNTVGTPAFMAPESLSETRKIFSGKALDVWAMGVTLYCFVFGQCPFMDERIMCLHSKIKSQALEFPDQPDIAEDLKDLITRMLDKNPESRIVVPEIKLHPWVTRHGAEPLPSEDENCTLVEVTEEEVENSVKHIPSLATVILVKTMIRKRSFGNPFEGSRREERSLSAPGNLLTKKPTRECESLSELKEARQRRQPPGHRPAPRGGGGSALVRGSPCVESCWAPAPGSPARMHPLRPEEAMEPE
Assay [5] concerns the target BMP-2-inducible protein kinase (Homo sapiens) (UniProt Q9NSY1).
The target in assay [6] is Casein kinase II subunit alpha (Homo sapiens) (UniProt P68400).
The target in assay [7] is Dual specificity protein kinase CLK3 (Homo sapiens, UniProt P49761).
Sequence of Dual specificity protein kinase CLK3 (P49761 whole entry, looked up): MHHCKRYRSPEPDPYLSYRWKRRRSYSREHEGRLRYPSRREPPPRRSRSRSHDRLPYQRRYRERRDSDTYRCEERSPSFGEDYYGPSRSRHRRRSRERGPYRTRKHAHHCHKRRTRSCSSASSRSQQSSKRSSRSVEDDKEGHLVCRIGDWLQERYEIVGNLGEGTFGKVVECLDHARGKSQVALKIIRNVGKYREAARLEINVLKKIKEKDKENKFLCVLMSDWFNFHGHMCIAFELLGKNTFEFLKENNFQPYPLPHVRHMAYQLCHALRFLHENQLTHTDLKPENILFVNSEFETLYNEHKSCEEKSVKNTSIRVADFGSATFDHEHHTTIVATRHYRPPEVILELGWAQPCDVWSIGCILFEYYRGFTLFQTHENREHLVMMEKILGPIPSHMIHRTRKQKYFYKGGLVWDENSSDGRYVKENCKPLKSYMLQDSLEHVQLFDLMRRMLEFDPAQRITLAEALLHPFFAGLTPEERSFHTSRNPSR
Assay [8] has as its target Serine/threonine-protein kinase haspin (Homo sapiens) (UniProt Q8TF76).
Assay [9] concerns the target Aurora kinase A (Homo sapiens) (UniProt O14965).
Assay [10] has as its target Glycogen synthase kinase-3 beta (Homo sapiens, UniProt P49841).
Assay [11] concerns the target AP2-associated protein kinase 1 (Homo sapiens) (UniProt Q2M2I8).
The target in assay [12] is Myotonin-protein kinase (Homo sapiens) (UniProt Q09013).
Assay [13] has as its target Casein kinase I isoform epsilon (Homo sapiens, UniProt P49674).
For assay [14], the target named is Serine/threonine-protein kinase pim-3 (Homo sapiens) (UniProt Q86V86).
In assay [15] the target is Homeodomain-interacting protein kinase 2 (Homo sapiens) (UniProt Q9H2X6).
Assay [16] concerns the target Casein kinase I isoform delta (Homo sapiens) (UniProt P48730).

SMILES strings stand for the structures.

Sequence of Glycogen synthase kinase-3 beta (P49841 whole entry, looked up): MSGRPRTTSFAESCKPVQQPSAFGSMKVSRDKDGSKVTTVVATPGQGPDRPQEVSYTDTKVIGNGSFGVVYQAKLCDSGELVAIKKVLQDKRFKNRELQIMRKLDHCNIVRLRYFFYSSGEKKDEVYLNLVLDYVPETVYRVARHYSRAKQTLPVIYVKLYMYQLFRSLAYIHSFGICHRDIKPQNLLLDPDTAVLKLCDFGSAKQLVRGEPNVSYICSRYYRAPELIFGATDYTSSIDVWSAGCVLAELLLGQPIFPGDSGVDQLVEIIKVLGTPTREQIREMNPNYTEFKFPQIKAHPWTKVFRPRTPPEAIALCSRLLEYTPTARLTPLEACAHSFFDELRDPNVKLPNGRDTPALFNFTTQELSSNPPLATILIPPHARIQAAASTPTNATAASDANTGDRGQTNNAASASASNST
Sequence of Casein kinase I isoform epsilon (P49674 whole entry, looked up, canonical isoform): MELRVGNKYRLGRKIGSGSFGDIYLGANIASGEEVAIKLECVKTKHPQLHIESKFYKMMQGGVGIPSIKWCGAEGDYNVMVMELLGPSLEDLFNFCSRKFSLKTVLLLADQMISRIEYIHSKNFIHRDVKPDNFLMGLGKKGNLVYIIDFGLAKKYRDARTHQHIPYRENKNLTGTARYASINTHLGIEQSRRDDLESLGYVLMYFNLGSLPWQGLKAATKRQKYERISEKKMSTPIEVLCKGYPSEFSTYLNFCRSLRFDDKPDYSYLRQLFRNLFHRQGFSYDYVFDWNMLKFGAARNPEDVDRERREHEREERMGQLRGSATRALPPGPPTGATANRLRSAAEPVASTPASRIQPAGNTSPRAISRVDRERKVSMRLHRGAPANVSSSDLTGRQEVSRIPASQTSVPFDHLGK
Sequence of Serine/threonine-protein kinase haspin (Homo sapiens) (Q8TF76 whole entry): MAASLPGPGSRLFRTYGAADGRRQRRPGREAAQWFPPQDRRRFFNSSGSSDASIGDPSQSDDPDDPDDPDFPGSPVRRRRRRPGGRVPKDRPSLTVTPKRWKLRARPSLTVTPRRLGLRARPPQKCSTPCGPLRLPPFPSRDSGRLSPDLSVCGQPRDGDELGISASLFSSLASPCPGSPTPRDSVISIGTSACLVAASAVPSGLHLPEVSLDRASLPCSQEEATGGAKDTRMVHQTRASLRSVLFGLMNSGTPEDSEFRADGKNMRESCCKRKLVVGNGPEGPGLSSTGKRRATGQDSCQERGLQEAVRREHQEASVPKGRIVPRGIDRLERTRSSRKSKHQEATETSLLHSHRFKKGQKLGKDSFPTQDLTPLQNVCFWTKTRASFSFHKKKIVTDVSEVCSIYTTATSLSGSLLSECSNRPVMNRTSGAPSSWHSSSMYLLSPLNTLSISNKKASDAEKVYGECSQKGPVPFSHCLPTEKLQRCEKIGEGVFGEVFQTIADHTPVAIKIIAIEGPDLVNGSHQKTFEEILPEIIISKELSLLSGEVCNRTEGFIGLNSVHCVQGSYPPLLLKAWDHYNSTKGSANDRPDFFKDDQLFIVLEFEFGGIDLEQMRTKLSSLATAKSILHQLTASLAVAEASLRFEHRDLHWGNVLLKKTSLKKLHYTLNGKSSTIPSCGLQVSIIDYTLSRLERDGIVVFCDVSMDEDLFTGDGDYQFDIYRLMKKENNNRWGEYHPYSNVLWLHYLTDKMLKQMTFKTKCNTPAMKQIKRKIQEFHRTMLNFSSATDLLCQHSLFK
Sequence of Dual specificity tyrosine-phosphorylation-regulated kinase 2 (Homo sapiens) (Q92630 whole entry): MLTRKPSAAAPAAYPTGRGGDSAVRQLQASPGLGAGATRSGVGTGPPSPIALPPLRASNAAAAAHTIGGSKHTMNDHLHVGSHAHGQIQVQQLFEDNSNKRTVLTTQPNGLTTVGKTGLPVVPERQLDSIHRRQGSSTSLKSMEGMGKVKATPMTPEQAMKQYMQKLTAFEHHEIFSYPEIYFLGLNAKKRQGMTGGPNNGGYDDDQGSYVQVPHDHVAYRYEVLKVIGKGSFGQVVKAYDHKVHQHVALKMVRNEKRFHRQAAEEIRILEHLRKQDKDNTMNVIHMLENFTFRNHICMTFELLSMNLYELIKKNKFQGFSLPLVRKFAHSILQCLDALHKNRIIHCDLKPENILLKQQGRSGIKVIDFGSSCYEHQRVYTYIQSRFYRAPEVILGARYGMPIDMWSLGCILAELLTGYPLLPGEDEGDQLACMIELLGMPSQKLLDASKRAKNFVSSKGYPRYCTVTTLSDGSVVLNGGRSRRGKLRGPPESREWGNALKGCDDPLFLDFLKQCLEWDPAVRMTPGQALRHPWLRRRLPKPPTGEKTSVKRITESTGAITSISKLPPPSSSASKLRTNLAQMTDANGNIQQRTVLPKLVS
Sequence of AP2-associated protein kinase 1 (Homo sapiens) (Q2M2I8 whole entry, looked up): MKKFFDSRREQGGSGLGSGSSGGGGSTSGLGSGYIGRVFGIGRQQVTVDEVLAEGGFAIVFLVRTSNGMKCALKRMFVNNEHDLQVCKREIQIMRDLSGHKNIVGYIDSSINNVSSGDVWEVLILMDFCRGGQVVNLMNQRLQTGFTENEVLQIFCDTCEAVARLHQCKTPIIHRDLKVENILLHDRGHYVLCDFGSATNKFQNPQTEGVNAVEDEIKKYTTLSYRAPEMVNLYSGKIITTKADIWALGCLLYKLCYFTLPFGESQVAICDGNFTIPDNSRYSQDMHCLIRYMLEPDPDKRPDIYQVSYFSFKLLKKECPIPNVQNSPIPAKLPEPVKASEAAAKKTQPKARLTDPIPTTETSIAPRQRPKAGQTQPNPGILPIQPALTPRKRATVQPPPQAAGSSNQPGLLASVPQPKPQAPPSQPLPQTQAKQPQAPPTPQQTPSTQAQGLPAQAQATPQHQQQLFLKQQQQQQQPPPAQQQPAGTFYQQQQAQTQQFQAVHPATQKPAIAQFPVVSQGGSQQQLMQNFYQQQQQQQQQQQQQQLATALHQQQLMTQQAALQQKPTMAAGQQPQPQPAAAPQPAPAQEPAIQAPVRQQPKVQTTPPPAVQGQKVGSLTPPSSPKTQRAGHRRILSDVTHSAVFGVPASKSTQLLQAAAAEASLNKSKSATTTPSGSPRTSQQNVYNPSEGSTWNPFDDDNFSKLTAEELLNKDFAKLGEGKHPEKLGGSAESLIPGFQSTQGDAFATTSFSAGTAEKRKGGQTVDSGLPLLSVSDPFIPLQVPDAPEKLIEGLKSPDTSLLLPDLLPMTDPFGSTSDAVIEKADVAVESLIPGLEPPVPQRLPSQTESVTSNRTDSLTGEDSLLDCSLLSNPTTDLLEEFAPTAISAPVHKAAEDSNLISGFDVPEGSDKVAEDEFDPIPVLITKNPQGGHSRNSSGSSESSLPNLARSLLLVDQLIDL
Sequence of Aurora kinase A (Homo sapiens) (O14965 whole entry): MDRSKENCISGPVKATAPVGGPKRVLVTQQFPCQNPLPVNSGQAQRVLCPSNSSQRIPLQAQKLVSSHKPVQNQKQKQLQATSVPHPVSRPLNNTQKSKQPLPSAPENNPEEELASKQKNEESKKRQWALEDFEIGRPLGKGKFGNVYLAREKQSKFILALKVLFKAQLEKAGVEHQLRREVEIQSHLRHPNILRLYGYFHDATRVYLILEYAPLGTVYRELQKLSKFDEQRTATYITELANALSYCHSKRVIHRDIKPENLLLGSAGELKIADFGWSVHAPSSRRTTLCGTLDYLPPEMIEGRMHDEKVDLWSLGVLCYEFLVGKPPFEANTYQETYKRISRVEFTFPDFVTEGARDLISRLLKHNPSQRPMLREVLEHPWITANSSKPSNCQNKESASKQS

What is called ΔTm is the change in melting temperature against a reference sample. For the compound `O=C1NC(NC23CC4CC(CC(C4)C2)C3)=N/C1=C\c1ccc2ncsc2c1`, the ΔTm in assay [1] worked out at 19.9 °C; in assay [2], 12.4 °C; in [3], 10.3 °C; in assay [4] it was 10.2 °C; in [5], 9.8 °C; in [6] it was 9.7 °C. For the same compound, the shift in melting temperature (ΔTm) in [7] is 9.7 °C; in assay [8], 7.6 °C; in assay [9], 7.5 °C; in assay [10] it was 6.5 °C; in [11] it was 6.1 °C; in [12], 5.6 °C. Moreover, the ΔTm stood at 5.5 °C in [13], 5.5 °C in [14], 5.2 °C in assay [15] and 5 °C in [16].
